# In US7462592B2, “Compositions and methods for polynucleotide delivery” (Novartis Vaccines and Diagnostics, Inc., priority 1996, dated 2008):
# Experiments:
# HT1080 and 293 cells = assay: Effect of chloroquine on transfection (FIG. 9); format: cell-based, human; details: presence or absence of chloroquine
# Description: FIG. 9 illustrates the effect of chloroquine on transfection with RZ145-1 in (A) 293 cells and (B) HT1080 cells. The cells were transfected in the presence (black bar) or absence (stippled bar) of 100 uM chloroquine. Cells were lysed 48 hours post transfection and luciferase activity and total protein content were measured.
# To determine whether chloroquine affected transfection mediated by polycationic agents of the present invention, HT1080 and 293 cells were transfected using RZ145-1 in the presence and absence of chloroquine. As a control, the same cell lines were transfected with polylysine both in the presence and absence of chloroquine. […] In contrast, polylysine-mediated transfection in the absence of chloroquine was 100-fold lower than polylysine mediated transfection in the presence of chloroquine.
# [1] = Coulter N4MD submicron analyzer; Lee et al., 1996; cited from earlier work
substance,measurement,setting,value
polylysine [reference compound],"transfection in the absence of chloroquine relative to presence of chloroquine, fold lower",HT1080 and 293 cells,100 fold
same,mean diameter of particles of condensed polynucleotide,[1],50-200 nm
